Some test systems named below: UO-31; MCF7; TK-10; SK-MEL-5; CAKI-1; HOP-62; RXF 393; RPMI-8226; UACC-257; OVCAR-5; MDA-MB-231; CCRF-CEM; LOX IMVI; HT-29; T47D; HCT-116; NCI-H226; Hs-578T; K562; OVCAR-4.
What all share (assay): NCI tumour cell line growth inhibition, 48 h

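Assay format: 96-well plates, 48-hour exposure. The concentration for 50% growth inhibition is given as GI50.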 Activity calls are given as the source filed them. No stated cut-off is given here; in the data, active = GI50 up to about 1.1 µM and inactive = higher.

For the compound `Cc1c(-c2ccccn2)ccc2ccccc12`, the GI50 in the assay with UO-31 is 32.7 µM (inactive); in the assay with MCF7, 88.7 µM (inactive); with TK-10, 45.2 µM (inactive); in the assay on SK-MEL-5 it was 35.7 µM (inactive); in the assay on CAKI-1 it was 45 µM (inactive); in the assay on HOP-62 it was > 100 µM (inactive). Further, the GI50 in the assay on RXF 393 was 29.1 µM (inactive); in the assay with RPMI-8226, 19 µM (inactive); with UACC-257, > 100 µM (inactive); in the assay with OVCAR-5, > 100 µM (inactive); in the assay on MDA-MB-231, 44.6 µM (inactive); in the assay on CCRF-CEM it was 28.2 µM (inactive). Moreover, the GI50 with LOX IMVI was 93.3 µM (inactive); with HT-29, 41.7 µM (inactive); in the assay with T47D, 39.2 µM (inactive); in the assay with HCT-116, 43.4 µM (inactive); with NCI-H226, 43 µM (inactive); in the assay with Hs-578T, > 100 µM (inactive). In the assay with K562, the GI50 is 71 µM (inactive).
Regarding `NCCSc1nc(-c2ccccc2)c(-c2ccccc2)o1`, the GI50 in the assay on UO-31 is > 100 µM (inactive); in the assay with MCF7, > 100 µM (inactive); with TK-10, 15.3 µM (inactive); in the assay on SK-MEL-5, > 100 µM (inactive); in the assay with CAKI-1, > 100 µM (inactive); in the assay on HOP-62, > 100 µM (inactive). The GI50 in the assay on RXF 393 was 42.2 µM (inactive); in the assay with OVCAR-4, 46.7 µM (inactive); in the assay with RPMI-8226, 88.3 µM (inactive); in the assay on UACC-257, 41.2 µM (inactive); with OVCAR-5 it was > 100 µM (inactive); in the assay on MDA-MB-231 it was > 100 µM (inactive). The GI50 in the assay with LOX IMVI is > 100 µM (inactive); in the assay on HT-29, 31.7 µM (inactive); in the assay with T47D, 25.2 µM (inactive); with HCT-116 it was 37.1 µM (inactive); in the assay on NCI-H226 it was > 100 µM (inactive); with Hs-578T, > 100 µM (inactive). The GI50 in the assay on K562 is > 100 µM (inactive).
In the case of `Fc1ccc(OCc2nc3cc(C(F)(F)F)ccc3nc2-c2ccccc2)cc1`, the GI50 is > 100 µM (inactive) with UO-31; 67.8 µM (inactive) with MCF7; 29.7 µM (inactive) in the assay with SK-MEL-5; > 100 µM (inactive) with CAKI-1; > 100 µM (inactive) in the assay on HOP-62; > 100 µM (inactive) with RXF 393. The GI50 in the assay with OVCAR-4 was 92 µM (inactive); with RPMI-8226, 46.6 µM (inactive); in the assay on UACC-257 it was > 23.8 µM (inactive); in the assay with OVCAR-5, > 100 µM (inactive); with MDA-MB-231 it was > 100 µM (inactive); in the assay with CCRF-CEM, > 44.1 µM (inactive). Also, the GI50 in the assay with LOX IMVI was > 100 µM (inactive); with HT-29 it was 21.4 µM (inactive); in the assay on T47D, 62.5 µM (inactive); with HCT-116 it was 99.5 µM (inactive); in the assay on NCI-H226, > 100 µM (inactive); in the assay with Hs-578T, > 81.7 µM (inactive). Also, the GI50 in the assay with K562 is 3.06 µM (inactive).
Take `COc1cc(C2OC[C@@H]3C(=O)OC[C@H]23)cc(O)c1OC` (some centres not stated): the GI50 with UO-31, in the assay with MCF7, with TK-10, with SK-MEL-5, in the assay on CAKI-1 and with RXF 393 was > 100 µM (inactive) each time. Besides, the GI50 in the assay with OVCAR-4, in the assay on RPMI-8226, in the assay with UACC-257, in the assay with OVCAR-5, with MDA-MB-231 and with CCRF-CEM was > 100 µM (inactive) each time. For the same compound, the GI50 in the assay with LOX IMVI, in the assay on HT-29, with T47D, in the assay on HCT-116, in the assay on NCI-H226 and with Hs-578T was > 100 µM (inactive) throughout. Also, the GI50 in the assay on K562 is > 100 µM (inactive).
As to `CCOC(=O)/C(C#N)=C/c1ccc(CO)o1`, the GI50 in the assay with MCF7, in the assay on TK-10, with SK-MEL-5, in the assay with CAKI-1, in the assay on HOP-62 and in the assay on RXF 393 was > 100 µM (inactive) in each case. Further, the GI50 in the assay on OVCAR-4, in the assay on RPMI-8226, in the assay on UACC-257, in the assay with OVCAR-5, in the assay on MDA-MB-231 and in the assay with LOX IMVI was > 100 µM (inactive) in each case. Further, the GI50 with HT-29, in the assay on T47D, with HCT-116, with NCI-H226, with Hs-578T and with K562 was > 100 µM (inactive) in each case.
Take `CC(=O)Nc1ccc(-c2nc3ccccc3s2)cc1Br`: the GI50 was 25.5 µM (inactive) in the assay on UO-31; 0.141 µM (active) with MCF7; 0.142 µM (active) in the assay on TK-10; > 100 µM (inactive) with SK-MEL-5; 25.5 µM (inactive) in the assay on CAKI-1; 7.53 µM (inactive) in the assay with HOP-62. Moreover, the GI50 with RXF 393 was 23.4 µM (inactive); with OVCAR-4, > 38.7 µM (inactive); in the assay with RPMI-8226, > 92.9 µM (inactive); with UACC-257, > 100 µM (inactive); with MDA-MB-231 it was 39.2 µM (inactive); with CCRF-CEM it was > 100 µM (inactive). Also, the GI50 is 71.1 µM (inactive) with LOX IMVI; > 63.7 µM (inactive) in the assay on HT-29; 0.687 µM (active) in the assay on T47D; 20.5 µM (inactive) in the assay on HCT-116; 2.42 µM (inactive) in the assay on NCI-H226; 15.7 µM (inactive) in the assay on Hs-578T. In the assay on K562, the GI50 is > 100 µM (inactive).
On to `NC1=C(N2CCCCC2)C(=O)NC2=N/C(=C\c3ccccc3)C(=O)N21`, for which the GI50 in the assay on UO-31, in the assay with MCF7, in the assay with TK-10, with SK-MEL-5, in the assay on CAKI-1 and with RXF 393 was > 100 µM (inactive) throughout. Further, the GI50 in the assay on OVCAR-4 is 86.3 µM (inactive); with RPMI-8226, > 100 µM (inactive); in the assay on UACC-257 it was > 100 µM (inactive); with OVCAR-5, > 100 µM (inactive); in the assay on MDA-MB-231, > 100 µM (inactive); with CCRF-CEM, > 100 µM (inactive). The GI50 in the assay on LOX IMVI, in the assay on HT-29, in the assay on T47D, with HCT-116, in the assay on NCI-H226 and with Hs-578T was > 100 µM (inactive) in each case. Moreover, the GI50 in the assay with K562 is 57.5 µM (inactive).
As for `Nc1[nH]c(=O)[nH]c(=O)c1Cc1cccc(Cl)c1`, the GI50 in the assay on UO-31 is 26.2 µM (inactive); in the assay on MCF7 it was 17.9 µM (inactive); in the assay on TK-10 it was 63.7 µM (inactive); in the assay on CAKI-1 it was > 100 µM (inactive); in the assay with HOP-62, > 100 µM (inactive); in the assay on RXF 393 it was 87.3 µM (inactive). Also, the GI50 is 57.9 µM (inactive) in the assay with OVCAR-4; 79.6 µM (inactive) in the assay with RPMI-8226; 51.9 µM (inactive) with UACC-257; > 100 µM (inactive) with OVCAR-5; > 100 µM (inactive) with MDA-MB-231; 54.7 µM (inactive) with LOX IMVI. The GI50 in the assay with HT-29 is > 100 µM (inactive); in the assay on T47D it was 39 µM (inactive); in the assay on HCT-116 it was 45.5 µM (inactive); in the assay on NCI-H226, > 100 µM (inactive); in the assay on Hs-578T it was 39.6 µM (inactive); in the assay with K562 it was 63.5 µM (inactive).
Turning to `CS/C(Nc1ccccc1)=C1\C(=O)N(c2ccccc2)N=C1C`, the GI50 with UO-31 was > 100 µM (inactive); in the assay with MCF7, > 100 µM (inactive); with TK-10 it was > 100 µM (inactive); in the assay with SK-MEL-5, > 100 µM (inactive); in the assay on CAKI-1, 52 µM (inactive); in the assay with RXF 393, > 100 µM (inactive). Also, the GI50 with OVCAR-4, in the assay on RPMI-8226, in the assay on UACC-257, in the assay on OVCAR-5, in the assay with MDA-MB-231 and with CCRF-CEM was > 100 µM (inactive) in each case. For the same compound, the GI50 in the assay on LOX IMVI, in the assay on HT-29, with T47D, in the assay on HCT-116, in the assay on NCI-H226 and with Hs-578T was > 100 µM (inactive) throughout. For the same compound, the GI50 in the assay with K562 was > 100 µM (inactive).
For `COc1ccccc1NC(=O)C(=O)C(C#N)CC(C)(C)C=O` (configuration not stated), the GI50 with UO-31, in the assay with MCF7, in the assay with TK-10, with SK-MEL-5, in the assay with CAKI-1 and in the assay with HOP-62 was > 100 µM (inactive) throughout. For the same compound, the GI50 in the assay on RXF 393, in the assay with OVCAR-4, with RPMI-8226, with UACC-257, in the assay on OVCAR-5 and with MDA-MB-231 was > 100 µM (inactive) each time. In addition, the GI50 in the assay with LOX IMVI, with HT-29, in the assay on T47D, in the assay with HCT-116, with NCI-H226 and in the assay on Hs-578T was > 100 µM (inactive) in each case. Further, in the assay with K562, the GI50 is > 100 µM (inactive).
As for `CCOC(=O)Nc1c(C#N)[n+]([O-])c2cc(Cl)c(Cl)cc2[n+]1[O-]`, the GI50 in the assay on UO-31 is 16.6 µM (inactive); in the assay on MCF7 it was 16.7 µM (inactive); in the assay with TK-10 it was 27.5 µM (inactive); in the assay with SK-MEL-5, 10.5 µM (inactive); in the assay on CAKI-1, 19.4 µM (inactive); in the assay with HOP-62, 45.7 µM (inactive). Besides, the GI50 was 15.1 µM (inactive) with RXF 393; 15.3 µM (inactive) with OVCAR-4; 2.15 µM (inactive) with RPMI-8226; 16.5 µM (inactive) in the assay on UACC-257; 15.9 µM (inactive) with MDA-MB-231; 4.37 µM (inactive) in the assay with CCRF-CEM. Besides, the GI50 was 6.1 µM (inactive) with LOX IMVI; 12 µM (inactive) with HT-29; 13.5 µM (inactive) in the assay with T47D; 14 µM (inactive) in the assay on HCT-116; 15.7 µM (inactive) with NCI-H226; 39.5 µM (inactive) in the assay with Hs-578T. Besides, the GI50 in the assay with K562 was 16.3 µM (inactive).

These data come from ChEMBL document CHEMBL1201862, “PubChem BioAssay data set” (2004).
